In brackets after ≈: the same amount, converted by molar mass.
Assays:
[1] = solubility limit of genipin in the liquid composition; type: physicochemical; settings: liquid composition: solvent with dissolved genipin; liquid form, solvent water or buffered water
Procedure: (§1) In liquid form, the composition consists of at least a solvent and dissolved genipin in an amount in the range of 10 mM to 200 mM (millimolar), with a preference towards the upper end of this range. […] The ultimate upper limit of 200 mM is the amount where the tattoo applicator becomes too stiff and ultimately impractical to use. The solvent may be pure water, or alternatively buffered water. It has been discovered that maintaining an optimal pH of 7.4 produces the highest degree of effectiveness. Use of a buffer allows such a pH to be accurately maintained at the optimal level of 7.4. However, for efficacy pure water may be used instead of buffered water. The pH of water is 7.0, which reasonably approximates the determined optimal pH, and is within a range of pH values which lead to preferred results. In a preferred embodiment, isopropyl alcohol or ethyl alcohol is added to the formulation to provide enhanced drying capabilities and increased genipin solubility.

human skin = assay: staining (inking) of skin; type: in vivo; settings: liquid form, dissolved genipin
Procedure: as §1, with “solubility. Generally, the use of water as the solvent is preferred over other possible solvents because certain steps in the inking or staining reaction depend on water as a catalyst. […] Water has a viscosity of 1 centipoise (cP), which is a very low level and one that has been determined to be preferred for the composition of the invention. […]” for “solubility.”

cells = settings: cited from earlier work
[2] = at basic pH; cited from earlier work

In the case of `COC(=O)C1=CO[C@@H](O)[C@@H]2C(CO)=CC[C@H]12` [genipin], the solubility [1] is listed as 95 mM (≈ 21.5 mg/mL), the “minimum concentration required for staining to take effect” value (human skin) is listed as 10 mM and the “cytotoxicity (harmfulness to cells)” value (cells) is listed as “low cytotoxicity”. The stability in solution [2] was “unstable and undergoes self-polymerization”.

From patent US12458580B2, “Body ink compositions and applicators” (Inkbox Ink Inc., priority 2015, dated 2025)
